The values below are quoted from earlier work in patent publication US20220018045A1, “ELECTROSPUN COAXIAL POLYMER FIBERS FOR CONTROLLED INSECT REPELLENT RELEASE” (The Government of the United States of America, as …, priority 2020, published 2022).

For this data set the following is noted: ambient conditions.

Structures are written as SMILES.

Turning to `CCC(C)OC(=O)N1CCCCC1CCO` (stereo not shown) [picaridin, 1-(1-methylpropoxycarbonyl)-2-(2-hydroxyethyl)piperidine], the vapor pressure was ~3.3×10^−2 Pa.
